Data on 29 molecules can be found in patent US20240092779A1, “USP1 INHIBITORS AND USES THEREOF” (Zentaur Therapeutics USA Inc., priority 2022, published 2024).

Values after ≈ are worked out from the molar mass of the structure shown. Where only a bound is given, the exact number is not on record here.

Data set [1] in a line: Solubility in FaSSIF (Fasted State Simulated Intestinal Fluid). The format is physicochemical. Particulars: FaSSIF pH 6.5, 25° C.; for solubility at 2 h: kinetic from dmso stock. The method, then: Solubility in FaSSIF (Fasted State Simulated Intestinal Fluid)
Certain Compounds of the Disclosure were assessed for the apparent solubility in FaSSIF.
0.420 g of NaOH, 3.438 g of NaH2PO4 and 6.186 g of NaCl were dissolved into about 900 mL ultrapure water. The solution was adjusted to the pH of 6.5 with 1N NaOH or 1N HCl. The solution was then diluted with ultrapure water to 1000 mL at room temperature. The resulting solution is used as buffer solution.
2.240 g of FaSSIF Powder was added to about 500 mL of above-mentioned buffer solution. The solution was stirred until powder was completely dissolved. Then the solution was diluted with buffer A to 1000 mL at room temperature. This solution is FaSSIF to be used in the following experiment.
15 μL of stock solution (10 mM) of each sample was placed into their proper 96-well rack. 485 μL of FaSSIF was added into each vial of the cap-less solubility sample plate. One stir stick was added to each vial and the vial was sealed using a molded PTFE/Silicone plug. The solubility sample plate was transferred to the Eppendorf Thermomixer Comfort plate shaker and shaked at 25° C. at 1100 RPM for 2 hours. After completion of the 2 hours, the stir sticks using a big magnet were removed. The samples from the solubility sample plate were transferred into the filter plate. Using the vacuum manifold, all the samples are filtered. Aliquot of 5 μL was taken from filtrate followed by addition of 5 μL DMSO and 490 μL of a mixture of H2O and acetonitrile containing internal standard (1:1).
3 μM Standards solution (STD) was prepared from the 10 mM DMSO STD plate.as following: transferring 6 μL into the remaining empty plate, adding 194 μL of DMSO to that plate to have a STD concentration of 300 μM. From the 300 μM DMSO STD plate, 5 μL solution was transferred into the remaining empty plate. Addition of 5 μL PBS and 490 μL of a mixture of H2O and acetonitrile containing internal standard (1:1) to that plate furnished a final STD concentration of 3 μM STD solution.
The samples are analyzed and quantified against the standard of known concentration using LC/MS/MS, calculating the solubility of the test compound as following (DF means the dilution factor):
[Sample solubility in FsSSIF (04)]=Area Ratio sample×DF sample×[STD]/Area Ratio STD

Data set [2] can be described thus: Liver microsomal stability (HLM). Particulars: human liver microsomes 0.5 mg/mL, 1 μM compound, NADPH; for microsomal CLint at 1 μM: human, liver microsomes. The format is in vitro ADME. As to the method: Liver Microsomal Stability
Certain Compounds of the Disclosure were assessed for ADME metabolic stability in human liver microsomes (HLM).
Samples were prepared by adding 222.5 μL of a master solution (100 mM phosphate buffer and 0.5 mg/mL liver microsomes (HLM)) and 25 μL of a 10 mM NADPH solution to incubation plates, which were then warmed for 10 min. Each compound was separately dissolved in DMSO to prepare 10 mM stock solutions, which were then diluted to 100 μM with acetonitrile. A reaction was started by adding 2.5 μL of the […] solution of each compound to separate incubation plates such that the final concentration of for each compound in each plate was 1 μM. Aliquots of 30 μL were taken from the reaction solution at 0.5, 5, 15, 30 and 60 minutes. The reaction was stopped by the addition of 5 volumes of cold acetonitrile with IS (100 nM alprazolam, 200 nM caffeine and 100 nM tolbutamide). Aliquot of 100 μL of the supernatant was diluted by 100 μL ultra-pure water, and the mixture was used for LC/MS/MS analysis. Peak areas were determined from extracted ion chromatograms. […]. The percentage of remaining parent was calculated from peak area of test compound or PC. The slope value, k, is determined by linear regression of the natural logarithm of percent parent remaining vs. incubation time curve. All calculations are carried out using Microsoft Excel.
The in vitro half-life (in vitro t1/2) is determined from the slope value:
Conversion of the in vitro t1/2 (in min) into the in vitro intrinsic clearance (in vitro CLint, (HLM Clint (μL/min/mg proteins))) is done using the following equation: […]
A: HLM Clint <10 μL/min/mg; B: 10 μL/min/mg≤HLM Clint <50 μL/min/mg; C: HLM Clint ≥50 μL/min/mg.

In turn, `COc1cc(Cn2c(=O)ccc3cnc(-c4c(OC)ncnc4C4CC4)nc32)cc(F)c1-c1nc(C(F)(F)F)cn1C(C)C` [Compound I-22, 2-(4-cyclopropyl-6-methoxypyrimidin-5-yl)-8-({3-fluoro-4-[1-isopropyl-4-(trifluoromethyl)imidazol-2-yl]-5-methoxyphenyl}methyl)pyrido[2,3-d]pyrimidin-7-one] showed a solubility at 2 h in data set [1] of no less than 100 µM. In data set [2], the microsomal CLint at 1 μM was 10 to 50 µL/min/mg.
On to `COc1ncnc(C2CC2)c1-c1ncc2ccc(=O)n(Cc3ccc(-c4nc(C(F)(F)F)cn4C(C)C)c(F)c3OC)c2n1` [Compound I-23, 2-(4-cyclopropyl-6-methoxypyrimidin-5-yl)-8-({3-fluoro-4-[1-isopropyl-4-(trifluoromethyl)imidazol-2-yl]-2-methoxyphenyl}methyl)pyrido[2,3-d]pyrimidin-7-one], for which the solubility at 2 h in data set [1] was less than 10 µM. Besides, the microsomal CLint at 1 μM in data set [2] was in the range of 10 to 50 µL/min/mg.
The like results for `COc1cc(Cn2c(=O)ccc3cnc(-c4c(OC)ncnc4C4CC4)nc32)cc(F)c1-c1nc(C(F)(F)F)cn1C1CC1` [Compound I-53] were, in that order, no less than 100 µM and 10 to 50 µL/min/mg.
Regarding `COc1ncnc(C2CC2)c1-c1ncc2cc(-c3cnn(C)c3)c(=O)n(Cc3ccc(-c4nc(C(F)(F)F)cn4C)cc3)c2n1` [Compound I-64], the solubility at 2 h in data set [1] was less than 10 µM. Further, the intrinsic clearance (microsomal CLint) at 1 μM in data set [2] was less than 10 µL/min/mg.
Consider `COc1ncnc(C2CC2)c1-c1ncc2nc(N3CCN(C)CC3)c(=O)n(Cc3ccc(-c4nc(C(F)(F)F)cn4C4CC4)cc3)c2n1` [Compound I-97], for which the solubility at 2 h in data set [1] was no less than 100 µM. In data set [2], this molecule gave a microsomal CLint at 1 μM of 10 to 50 µL/min/mg.
In data set [1], `COc1ncnc(OC)c1-c1ncc2ccc(=O)n(Cc3ccc(-c4nc(C(F)(F)F)cn4C4CC4)cc3)c2n1` [Compound I-102] came in with a solubility at 2 h of no less than 100 µM. Besides, the microsomal CLint at 1 μM in data set [2] lay within 10 to 50 µL/min/mg.
`O=c1ccc2cnc(-c3c(OC(F)F)ncnc3C3CC3)nc2n1Cc1ccc(-c2nc(C(F)(F)F)cn2C2CC2)cc1` [Compound I-103] gave a solubility at 2 h in data set [1] of less than 10 µM. This molecule showed an intrinsic metabolic clearance (microsomal CLint) at 1 μM in data set [2] of less than 10 µL/min/mg.
`COc1ncnc(C2CC2)c1-c1ncc2cc(C3=CCN(C)CC3)c(=O)n(Cc3ccc(-c4nc(C(F)(F)F)cn4C(C)C)cc3)c2n1` [Compound I-106]: the solubility at 2 h in data set [1] was no less than 100 µM. The molecule also came in with a microsomal CLint at 1 μM in data set [2] of less than 10 µL/min/mg.
On to `COc1cc(Cn2c(=O)cnc3cnc(-c4c(OC)ncnc4C4CC4)nc32)cc(F)c1-c1nc(C(F)(F)F)cn1C(C)C` [Compound I-107], for which the solubility at 2 h in data set [1] was no less than 100 µM. The molecule further registered an intrinsic clearance (microsomal CLint) at 1 μM in data set [2] of less than 10 µL/min/mg.
The like results for `COc1ncnc(C2CC2)c1-c1ncc2cc(C(C)(C)O)c(=O)n(Cc3ccc(-c4nc(C(F)(F)F)cn4C4CC4)cc3)c2n1` [Compound I-109] were, in that order, no less than 100 µM and less than 10 µL/min/mg.
The like results for `COc1ncnc(C2CC2)c1-c1ncc2ccc(=O)n(Cc3ccc(-n4nc(C(F)(F)F)cc4OC)cc3)c2n1` [Compound I-110] were, in that order, less than 10 µM and less than 10 µL/min/mg.
The like results for `COc1cc(Cn2c(=O)ccc3cnc(-c4c(OC)ncnc4OC)nc32)cc(F)c1-c1nc(C(F)(F)F)cn1C(C)C` [Compound I-113] were, in that order, 10 to 100 µM (≈ 6 to 60 µg/mL) and 10 to 50 µL/min/mg.
For the molecule `COc1cc(Cn2c(=O)cnc3cnc(-c4c(OC)ncnc4C4CC4)nc32)ccc1-c1nc(C(F)(F)F)cn1C(C)C` [Compound I-118], the solubility at 2 h in data set [1] was no less than 100 µM. The molecule further registered an intrinsic metabolic clearance (microsomal CLint) at 1 μM in data set [2] of 10 to 50 µL/min/mg.
Take `COc1cc(Cn2c(=O)cnc3cnc(-c4c(OC)ncnc4C4CC4)nc32)ccc1-c1nc(C(F)(F)F)cn1C(C)C` [Compound I-119]: the “Solubility in FaSSIF(μM)” value in data set [1] (2 hours) is reported as “C (Solubility ≥100 μN)”. Besides, the “HLM Clint (μL/min/mg)” value in data set [2] is given as “A (HLM Clint <10 μL/min/mg)”.
Take `COCCN1CCC(c2cc3cnc(-c4c(OC)ncnc4C4CC4)nc3n(Cc3ccc(-c4nc(C(F)(F)F)cn4C4CC4)cc3)c2=O)CC1` [Compound I-120]: in data set [1], the solubility at 2 h was no less than 100 µM. The molecule further came in with an intrinsic metabolic clearance (microsomal CLint) at 1 μM in data set [2] of less than 10 µL/min/mg.
In data set [1], `COc1ncnc(C2CC2)c1-c1ncc2cc(C3CCN(C)CC3)c(=O)n(Cc3ccc(-n4nc(C(F)(F)F)cc4C)cc3)c2n1` [Compound I-121] displayed a solubility at 2 h of no less than 100 µM. For the same molecule, the intrinsic metabolic clearance (microsomal CLint) at 1 μM in data set [2] was less than 10 µL/min/mg.
For the molecule `COc1cc(Cn2c(=O)ccc3cnc(-c4c(OC)ncnc4C4CC4)nc32)ccc1-n1nc(C(F)(F)F)cc1OC` [Compound I-122], the solubility at 2 h in data set [1] was 10 to 100 µM (≈ 5.8 to 58 µg/mL). Besides, the microsomal CLint at 1 μM in data set [2] was less than 10 µL/min/mg.
`COc1cc(Cn2c(=O)cnc3cnc(-c4c(OC)ncnc4C4CC4)nc32)ccc1-n1nc(C(F)(F)F)cc1OC` [Compound I-123]: in data set [1], the solubility at 2 h is no less than 100 µM. This molecule also registered a microsomal CLint at 1 μM in data set [2] of 10 to 50 µL/min/mg.
In the case of `COc1cc(Cn2c(=O)ccc3cnc(-c4c(OC)ncnc4C4CC4)nc32)ccc1-c1nc(C(F)(F)F)cn1C1CC1` [Compound I-124], the solubility at 2 h in data set [1] is 10 to 100 µM (≈ 5.9 to 59 µg/mL). The molecule further registered a microsomal CLint at 1 μM in data set [2] of less than 10 µL/min/mg.
Consider `COc1cc(Cn2c(=O)cnc3cnc(-c4c(OC)ncnc4C4CC4)nc32)ccc1-c1nc(C(F)(F)F)cn1C1CC1` [Compound I-125], for which, in data set [1], the solubility at 2 h is no less than 100 µM. This molecule also displayed an intrinsic clearance (microsomal CLint) at 1 μM in data set [2] of 10 to 50 µL/min/mg.
For `COc1cc(Cn2c(=O)ccc3cnc(-c4c(OC)ncnc4C4CC4)c(F)c32)ccc1-c1nc(C(F)(F)F)cn1C1CC1` [Compound I-126], the solubility at 2 h in data set [1] is 10 to 100 µM (≈ 6.07 to 60.7 µg/mL). This molecule also displayed a microsomal CLint at 1 μM in data set [2] of 10 to 50 µL/min/mg.
The like results for `COc1ncnc(C2CC2)c1-c1ncc2cc(-c3cnn(C)c3)c(=O)n(Cc3ccc(-c4nc(C(F)(F)F)cn4C4CC4)cc3)c2n1` [Compound I-127] were, in that order, no less than 100 µM and less than 10 µL/min/mg.
Taken in the same sequence, the figures for `COc1ncnc(C2CC2)c1-c1ncc2c(C)c(-c3cnn(C)c3)c(=O)n(Cc3ccc(-c4nc(C(F)(F)F)cn4C4CC4)cc3)c2n1` [Compound I-128] were 10 to 100 µM (≈ 6.54 to 65.4 µg/mL) and less than 10 µL/min/mg.
Taken in the same sequence, the figures for `COc1ncnc(C2CC2)c1-c1ncc2cc(-c3c(C)nn(C)c3C)c(=O)n(Cc3ccc(-c4nc(C(F)(F)F)cn4C4CC4)cc3)c2n1` [Compound I-129] were no less than 100 µM and 10 to 50 µL/min/mg.
As for `COc1ncnc(C2CC2)c1-c1ncc2cc(-c3cn[nH]c3)c(=O)n(Cc3ccc(-c4nc(C(F)(F)F)cn4C4CC4)cc3)c2n1` [Compound I-130], in data set [1], the solubility at 2 h was no less than 100 µM. Also, the intrinsic metabolic clearance (microsomal CLint) at 1 μM in data set [2] is less than 10 µL/min/mg.
As for `COc1ncnc(C2CC2)c1-c1ncc2cc(-c3cnn(CCO)c3)c(=O)n(Cc3ccc(-c4nc(C(F)(F)F)cn4C4CC4)cc3)c2n1` [Compound I-131], in data set [1], the solubility at 2 h is no less than 100 µM. In data set [2], this molecule gave a microsomal CLint at 1 μM of less than 10 µL/min/mg.
Taken in the same sequence, the figures for `COc1ncnc(C2CC2)c1-c1ncc2cc(-c3cnn(CCN(C)C)c3)c(=O)n(Cc3ccc(-c4nc(C(F)(F)F)cn4C4CC4)cc3)c2n1` [Compound I-132] were no less than 100 µM and 10 to 50 µL/min/mg.
For the molecule `COc1ncnc(C2CC2)c1-c1ncc2cc(-c3c(C)cnn3C)c(=O)n(Cc3ccc(-c4nc(C(F)(F)F)cn4C4CC4)cc3)c2n1` [Compound I-133], the solubility at 2 h in data set [1] was 10 to 100 µM (≈ 6.54 to 65.4 µg/mL). Further, in data set [2], the intrinsic clearance (microsomal CLint) at 1 μM fell in the range of 10 to 50 µL/min/mg.
In data set [1], `COc1ncnc(C2CC2)c1-c1nc(C)c2ccc(=O)n(Cc3ccc(-c4nc(C(F)(F)F)cn4C4CC4)cc3)c2n1` [Compound I-135] returned a solubility at 2 h of no less than 100 µM. The molecule also gave a microsomal CLint at 1 μM in data set [2] of less than 10 µL/min/mg.
